In patent publication US8916605B2, “Compounds and methods for treating cancer and viral infections” (priority 2009, dated 2014):

What was measured:
[1] = test system: Influenza A (strain A/PR/8/34); assay: Anti-influenza cytopathic effect (CPE) assay in MDCK cells, prophylactic regimen (Example 7); assay type: cell-based; design: key to CPE score: 1: Complete monolayer with few gaps or dead cells; 2: Some gaps in the monolayer; dead cells more evident; 3: Increasing number of gaps in the monolayer concurrent with dead cells; 4: Gaps widely distributed throughout the monolayer and of increasing size; 5: Large holes forming as smaller gaps merge; copious dead cells evident; 6: Monolayer integrity lost. Small islands of attached cells amid predominantly dead cells; conditions: for CPE score: Influenza A, MDCK
[2] = test system: Influenza B (strain B/Lee/40); assay: as above; assay type: cell-based; design: key to CPE score: 1: Complete monolayer with few gaps or dead cells; 2: Some gaps in the monolayer; dead cells more evident; 3: Increasing number of gaps in the monolayer concurrent with dead cells; 4: Gaps widely distributed throughout the monolayer and of increasing size; 5: Large holes forming as smaller gaps merge; copious dead cells evident; 6: Monolayer integrity lost. Small islands of attached cells amid predominantly dead cells; conditions: for CPE score: Influenza B, MDCK, virus + DMSO control 4
[3] = test system: U373 astroglioma cells; assay: MTT (CIMA) cell proliferation assay, acute and chronic exposure (Example 3); conditions: acute (24 h) and chronic (72 h) treatment, 0.5-250 μg/ml
Procedure: (§1) Compound preparation: Stock solutions of test compounds were prepared in dimethylsulfoxide (DMSO) at 250 mg/ml. Working concentrations of 10 mg/ml were subsequently prepared from the stock solution and stored in 50 μl aliquots at −20° C. until used.
(§2) Cells and cell culture: Proof-of-principle studies in this example focused on two human brain cancer cell lines, namely SH-SY5Y neuroblastoma cells and U373 astroglioma cells. […] Both cells were maintained in (50:50) F12:DMEM medium supplemented with 10% fetal calf serum (FCS) and antibiotics in a humidified, 5% CO2 environment. Cells were passaged as required by trypsinization.
(§3) Assays conditions: The effects of the test compounds were assessed following acute and chronic exposure conditions. […] The test compounds were evaluated over a broad range of concentrations (0, 0.5, 1, 5, 10, 50, 100 and 250 μg/ml) with cells treated with equivalent concentrations of vehicle (DMSO) serving as controls.
(§4) Cell proliferation assay: Cell proliferation was assessed using a standard colorimetric indicator of metabolic activity (CIMA) assay. In this assay, the reduction of yellow tetrazolium salt (MTT) to purple formazan by mitochondrial reductase enzymes in viable cells was evaluated as a measure of metabolic activity to determine the extent of cell proliferation within a culture. The resulting colour change that conferred a change in absorbance was quantified using a spectrophotometer (λ=500-600). Samples were diluted as required to ensure that values obtained with the MTT assay fell within the linear range of the protocol. Qualitative microscopic evaluation of treated cultures was used to determine if overt cytotoxicity was present and to supplement the quantitative CIMA data.

[4] = test system: SH-SY5Y neuroblastoma cells; assay: as above
Procedure: as §1, §2, §3, §4

[5] = test system: all three transformed neuronal cell lines (IMR32, NG108, NSC34); assay: MTT (CIMA) cell proliferation assay (Example 4); conditions: 72 h post-treatment; 0.5-250 μg/ml
Procedure: as §1
Cells and cell culture: Three classes of cells were evaluated: 1) neuroblastoma cells, 2) neuroglioma cells, and 3) non-transformed human neurons (see below). All cells were maintained in appropriate culture medium supplemented with 10% fetal calf serum (FCS) and antibiotics in a humidified, 5% CO2 environment. Cells were passaged as required by trypsinization.
Assay conditions: The effects of the test compounds were assessed following acute and chronic exposure conditions. […] Each compound was evaluated over a broad range of concentrations (0, 0.5, 1, 5, 10, 50, 100 and 250 μg/ml) with cells treated with equivalent concentrations of vehicle (DMSO) serving as controls.
Cell proliferation assay: Cell proliferation was assessed using a standard colorimetric indicator of metabolic activity (CIMA) assay. In this assay, the reduction of yellow tetrazolium salt (MTT) to purple formazan by mitochondrial reductase enzymes in viable cells was evaluated as a measure of metabolic activity to determine the extent of cell proliferation within a culture. […]

[6] = test system: MDCK cells; assay: Cytotoxicity assay (MTT/CIMA) in MDCK cells (Example 7)

Compound: CC(C)(C)OC(=O)N1CCCC1O (centres unmarked) [I(b), tert-butyl 2-hydroxypyrrolidine-1-carboxylate]
- CPE score ([1]; 0.5 μg/ml, virus + DMSO control 3): 1
- CPE score ([1]; 0.5 μg/ml, virus + DMSO control 4): 2
- CPE score ([1]; 1.0 μg/ml, virus + DMSO control 3): 1
- CPE score ([1]; 1.0 μg/ml, virus + DMSO control 4): 2
- CPE score ([1]; 5.0 μg/ml, virus + DMSO control 3): 1
- CPE score ([1]; 5.0 μg/ml, virus + DMSO control 4): 3
- CPE score ([1]; 10 μg/ml, virus + DMSO control 3): 3
- CPE score ([1]; 10 μg/ml, virus + DMSO control 4): 4
- CPE score ([1]; 25 μg/ml, virus + DMSO control 3): 3
- CPE score ([1]; 25 μg/ml, virus + DMSO control 4): 4
- CPE score ([1]; 50 μg/ml, virus + DMSO control 3): 3
- CPE score ([1]; 50 μg/ml, virus + DMSO control 4): 4
- CPE score ([1]; 100 μg/ml, virus + DMSO control 3): 3
- CPE score ([1]; 100 μg/ml, virus + DMSO control 4): 4
- effect on CPE (summary in words) ([1]; comparatively lower concentrations): lower concentrations more greatly reduced CPE
- effect on CPE (summary in words) ([2]; Influenza B infection): little impact on CPE
- CPE score ([2]; 24 hpi, 0.5 μg/ml): 3
- CPE score ([2]; 24 hpi, 1.0 μg/ml): 4
- CPE score ([2]; 24 hpi, 5.0 μg/ml): 4
- CPE score ([2]; 24 hpi, 10 μg/ml): 3
- CPE score ([2]; 24 hpi, 25 μg/ml): 4
- CPE score ([2]; 24 hpi, 50 μg/ml): 3
- CPE score ([2]; 24 hpi, 100 μg/ml): 4
- CPE score ([2]; 48 hpi, 0.5 μg/ml): 3
- CPE score ([2]; 48 hpi, 1.0 μg/ml): 4
- CPE score ([2]; 48 hpi, 5.0 μg/ml): 4
- CPE score ([2]; 48 hpi, 10 μg/ml): 4
- CPE score ([2]; 48 hpi, 25 μg/ml): 4
- CPE score ([2]; 48 hpi, 50 μg/ml): 3
- CPE score ([2]; 48 hpi, 100 μg/ml): 3
- overt cell death / reductions in MTT activity [3]: Neither overt cell death nor significant reductions in MTT activity
- decrease in MTT activity ([4]; SH-SY5Y, acute treatment (24 h), 0.25 mg/ml): approximately 30%
- change in MTT activity ([4]; SH-SY5Y, acute treatment (24 h), other concentrations evaluated (below 0.25 mg/ml)): No significant change in MTT activity
- decrease in MTT activity ([4]; SH-SY5Y, chronic treatment (72 h), 50 μg/ml): 25%
- decrease in MTT activity ([4]; SH-SY5Y, chronic treatment (72 h), 100 μg/ml): 25%
- decrease in MTT activity ([4]; SH-SY5Y, chronic treatment (72 h), 250 μg/ml): 47%
- LD50 ([4]; select cell types, chronic conditions (72 h)): ~0.25 mg/mL
- viability/proliferation [5]: dose-dependent decreases in viability/proliferation
- Toxicity (MTT), fold changes relative to vehicle controls ([6]; 24 h exposure, 0.5 μg/ml): 1.02 fold
- Toxicity (MTT), fold changes relative to vehicle controls ([6]; 24 h exposure, 1.0 μg/ml): 1.07 fold
- Toxicity (MTT), fold changes relative to vehicle controls ([6]; 24 h exposure, 5.0 μg/ml): 1.09 fold
- Toxicity (MTT), fold changes relative to vehicle controls ([6]; 24 h exposure, 10 μg/ml): 1.00 fold
- Toxicity (MTT), fold changes relative to vehicle controls ([6]; 24 h exposure, 25 μg/ml): 1.08 fold
- Toxicity (MTT), fold changes relative to vehicle controls ([6]; 24 h exposure, 50 μg/ml): 1.13 fold
- Toxicity (MTT), fold changes relative to vehicle controls ([6]; 24 h exposure, 100 μg/ml): 1.09 fold
- Toxicity (MTT), fold changes relative to vehicle controls ([6]; 72 h exposure, 0.5 μg/ml): 0.99 fold
- Toxicity (MTT), fold changes relative to vehicle controls ([6]; 72 h exposure, 1.0 μg/ml): 1.00 fold
- Toxicity (MTT), fold changes relative to vehicle controls ([6]; 72 h exposure, 5.0 μg/ml): 0.94 fold
- Toxicity (MTT), fold changes relative to vehicle controls ([6]; 72 h exposure, 10 μg/ml): 0.97 fold
- Toxicity (MTT), fold changes relative to vehicle controls ([6]; 72 h exposure, 25 μg/ml): 1.04 fold
- Toxicity (MTT), fold changes relative to vehicle controls ([6]; 72 h exposure, 50 μg/ml, decreases exceeding 25% considered toxic): 0.99 fold
- Toxicity (MTT), fold changes relative to vehicle controls ([6]; 72 h exposure, 100 μg/ml, decreases exceeding 25% considered toxic): 0.89 fold
- cytotoxicity (summary in words) ([6]; higher concentrations (≧25 μg/ml)): did not evidence cytotoxicity
